Measurements: patent publication US5985824A, “Methods and compositions for treating cystic fibrosis” (priority 1997, dated 1999)
“Also recorded” adds a separate entry of the source.

How the values were obtained:
ΔF508-CFTR (IBE-1 cells) [1] = assay: whole cell patch-clamp analysis of IBE-1 cells; assay type: cell-based, human; conditions: 200 μM extracellular DPC, n=4, DSG-treated IBE-1 cells
Description: The bath (extracellular) solution contained: 140 mM N-methyl-Dglucamine (NMDG), 2 mM CaCl2, 1 mM MgCl2, 0.1 mM CdCl2, 10 mM HEPES, 4 mM CsCl, and 10 mM glucose, pH 7.4. These solutions were designed so as to study only currents flowing through Cl^- channels, since Cl^- was the only significant permeant ion in the solutions. Furthermore, Ca^2+ -activated Cl^- currents were minimized by inclusion of 10 mM EGTA in the intracellular solution and 100 μM of Cd^2+ in the extracellular bath. K^+ currents were minimized by including 20 mM TEA in the intracellular solution. Aspartate was used as the replacement anion in experiments in which extracellular Cl^- concentration was changed. Forskolin (10 μM), IBMX (100 μM), 8-(4-chlorophenylthio)-cAMP (cpt-cAMP, 200 μM), diphenylamine carboxylic acid (DPC, 200 μM), UTP (100 μM), and ionomycin (1 μM) were added to the bath solutions as indicated. Current recordings were made from the same cells before, during, and after exposure to the solutions containing the different agonists or inhibitors. All experiments were performed at room temperature (22° C.). Currents were filtered at 2 kHz. Data acquisition and analysis were performed using the PCLAMP 5.5.1 software (Axon Instruments, Foster City, Calif.).
In all of the successfully patched CF IBE-1 cells from 6 separate coverslips no activation of whole cell currents in response to forskolin (10 μM) plus IBMX (100 μM) or cpt-cAMP (200 μM) was detected (FIG. 10A and 10B), indicating no endogenous CFTR channel activity in these cells. In contrast, in 7 out of 19 successful patched cells from 19 separate coverslips treated with DSG (10 μM) for 48 to 72 hrs. a significant activation of whole cell currents was observed. As all the other cells, the holding potential was 0 m, which inactivated the voltage-gated Na^+ and Ca^++ channels. After addition of 200 μM cpt-cAMP to the bath solution, voltage steps from the holding potential to between -100 mV and 80 mV in 20 mV increments activated whole cell currents. In these experiments, the intracellular and extracellular solutions were designed to study only current flowing through Cl^- channels, since Cl^- is the only significant permeant ion in solution. Ca^++ and K^+ currents were minimized by 100 μM of extracellular Cd^++ and 20 mM of intracellular TEA respectively. Furthermore, the currents were ascertained to be Cl^- currents from change in the reversal potential which was shifted from 1.1±1.5 to 47.3±6.1 mV by reducing extracellular Cl^- from 150 mM to 20 mM.
It is highly unlikely that Ca^++ -activated Cl^- was recorded in these experiments because of the presence of 10 mM intracellular EGTA and 100 µM extracellular Cd^++. […] Special attention was paid to detect possible contribution of the outwardly rectifying Cl^- channel (ORCC) to the whole cell currents. Because of a possible upregulatory role of CFTR, ORCC can be activated in normal but not in CF airway epithelial cells (Hwang et al. (1989), supra.; Li et al. (1988), Nature 331: 358-360; Morris and Frizzel (1993); Am. J. Physiol.; Schwiebert et al. (1994), Am. J. Physiol.).

ΔF508-CFTR (IBE-1 cells) [2] = conditions: CFTR vs ORCC; Cliff and Frizzel, Schwiebert et al.; cited from earlier work
CFTR = conditions: Yang et al. (1997); cited from earlier work
[3] = system: ΔF508-CFTR (C127-ΔF508-low cells); assay: SPQ halide efflux assay, cAMP-stimulated Cl- channel activity, C127-ΔF508-low cells; assay type: cell-based; conditions: C127-ΔF508-low cells; for cAMP-stimulated change in SPQ fluorescence / Cl- channel activity, in words: DSG 10-100 μg/ml, sodium butyrate 5 mM 24 h, spermidine 5 μg/ml 72 h
Description: (§1) The cAMP-dependent CFTR Cl^- channel activity was assessed using the halide-sensitive fluorophore 6-methoxy-N-(3-sulfopropyl)-quinolinium (SPQ) essentially as described previously (Cheng et al., (1995), supra.; Marshall et al., supra.). Briefly, the cells were treated with different amounts of DSG for the times specified. At the end of the treatment period, the cells were loaded with SPQ by hypotonic shock for 4 min at room temperature. SPQ fluorescence initially was quenched by incubating the cells for up to 30 min in a NaI buffer (135 mM NaI, 2.4 mM K2 HPO4, 0.6 mM KH2 PO4, 1 mM MgSO4, 1 mM CaSO4, 10 mM dextrose, and 10 mM N-2 hydroxyethylpiperazine-N'2-ethanesulfonic acid, pH 7.4). After measuring the baseline fluorescence (Fo) for 2 min., the NaI solution was replaced with one containing 135 mM NaNO3, and fluorescence was measured for another 16 min. Forskolin (20 μM) and 3-isobutyl-1-methyl-xanthine (IBMX) (100 μM) were added 5 min after the anion substitution to increase intracellular levels of cAMP.
(§2) An increase in halide permeability is reflected by a more rapid increase in SPQ fluorescence. It is the rate of change rather than the absolute change in signal that is the important variable in evaluating anion permeability. Differences in absolute levels reflect quantitative differences between groups in SPQ loading, size of cells, or number of cells studied. The data are presented as means± SE of fluorescence at time t (Ft) minus the baseline fluorescence (Fo, the average fluorescence measured in the presence of I^- for 2 min. before ion substitution) and are representative of results obtained under each condition.
For each experiment, between 50 to 100 cells were examined on a given day and studies under each condition were repeated on at least two days. For each experiment, the responses were compared with those obtained with control or untreated cells. […] Under the conditions specified above, control cells were unresponsive to added cAMP agonists. There was a broad spectrum in the rate of change in SPQ fluorescence observed with responsive cells. Normally, cells were scored as responsive if they generated a minimum of a […] change in the rate of increase in SPQ fluorescence following stimulation with cAMP agonists. Because the response was heterogenous, the data shown are for the 10% of cells in each experiment showing the greatest response.
A bovine-papilloma virus based eukaryotic expression vector (pBPV-CFTR-ΔF508) containing the gene for ΔF508 CFTR and neomycin resistance were transfected into C127 cells. The C127 cells are murine mammary cells which were obtained from ATCC (#CRL 1616). The expression of the mutant ΔF508 protein and neomycin was driven using a metallothionein promoter. Following transfection, clonal cells resistant to G418 were isolated and cells expressing the mutant ΔF508 protein were subsequently identified using antibodies specific for CFTR (mAb-13-1). The cells expressing the mutant ΔF508 CFTR protein were maintained in Dulbecco's modified eagle media (DMEM) supplemented with glutamine and fetal calf serum.
C127-ΔF508-low (mouse mammary tumor) is a recombinant cell line stably transfected with the cDNA encoding the mutant ΔF508-CFTR (Cheng et al. (1995), supra.; Marshall et al. (1994), J. Biol. Chem. 269: 2987-2995). […] C127-mock is a cell line that has been stably transfected with the backbone of the expression vector used to generate C127-ΔF508-low (Cheng et al. (1995), supra.). LLCPK1 -ΔF508 (pig kidney epithelial) is a recombinant cell line stably expressing low levels of the mutant ΔF508-CFTR protein (Marshall et al., supra.). The details of the generation, characterization and routine propagation of these cell lines has been described (Cheng et al. (1995), supra.; Marshall et al., supra.).
Cells were treated with up to 100 μg/ml of DSG for up to 72 h. Concentrations of DSG >50 μg/ml were toxic to most of the cell types tested. […]

ΔF508-CFTR = conditions: recombinant cells; Cheng et al. (1995); cited from earlier work
[4] = system: ΔF508-CFTR (JME/CF15 cells); assay: SPQ assay, cAMP-stimulated Cl- channel activity, JME/CF15 cells; assay type: cell-based, human; conditions: 72 h
Description: as §1, §2
For each experiment, between 50 to 100 cells were examined on a given day and studies under each condition were repeated on at least two days. […] There was a broad spectrum in the rate of change in SPQ fluorescence observed with responsive cells. Normally, cells were scored as responsive if they generated a minimum of a […] change in the rate of increase in SPQ fluorescence following stimulation with cAMP agonists. […]

O=C(O)c1ccccc1Nc1ccccc1 [DPC, diphenylamine carboxylic acid]
reduction of whole cell currents (ΔF508-CFTR (IBE-1 cells) [1]): 92±4%
selectivity of inhibition (ΔF508-CFTR (IBE-1 cells) [2]): specifically inhibit CFTR but not ORCC

O=c1c(-c2ccc(O)cc2)coc2cc(O)cc(O)c12 [genistein]
activity of CFTR Cl channels at the cell surface (CFTR): enhance the activity of CFTR

CCCC(=O)[O-].[Na+] [sodium butyrate]
cells generating a measurable response ([3]; SPQ, average of 5 experiments): 90%
cAMP-stimulated change in SPQ fluorescence / Cl- channel activity, in words [3]: generated cAMP-stimulated halide efflux
effect on ΔF508-CFTR expression / location, in words (ΔF508-CFTR): overexpression of ΔF508 in recombinant cells; also recorded: results in synthesis of detectable amounts of band C-CFTR; also recorded: capable of effecting the presence of ΔF508-CFTR at the plasma membrane

NCCCCNCCCN [spermidine]
cAMP-stimulated change in SPQ fluorescence / Cl- channel activity, in words [3]: No measurable cAMP-stimulated Cl^- channel activity was detected
cAMP-stimulated Cl- channel activity, in words [4]: not replicated

calyculin
activity of CFTR Cl channels at the cell surface (CFTR): enhance the activity of CFTR
